According to the NIST ThermoML archive (doi:10.1016/j.fluid.2010.03.010):

Conditions: Liquid, Vibrating tube method

CCCCn1cc[n+](C)c1.N#CN=C=[N-] [1-butyl-3-methylimidazolium dicyanamide]
Conditions | mass density [kg/m3]
293.15 K, 100 kPa | 1064.4
293.15 K, 101.33 kPa | 1063.73
293.15 K, 250 kPa | 1064.4
293.15 K, 500 kPa | 1064.5
293.15 K, 1000 kPa | 1064.7
293.15 K, 2000 kPa | 1065.1
293.15 K, 4990 kPa | 1066.2
293.15 K, 10010 kPa | 1068.2
293.15 K, 15000 kPa | 1070
293.15 K, 20000 kPa | 1071.9
293.15 K, 25000 kPa | 1073.6
293.15 K, 30000 kPa | 1075.4
293.15 K, 35000 kPa | 1077.1
293.15 K, 40000 kPa | 1078.9
293.15 K, 45000 kPa | 1080.5
293.15 K, 50000 kPa | 1082.2
293.15 K, 55000 kPa | 1083.8
293.15 K, 60000 kPa | 1085.4
294.15 K, 101.33 kPa | 1063.09
295.15 K, 101.33 kPa | 1062.45
296.15 K, 101.33 kPa | 1061.81
297.15 K, 101.33 kPa | 1061.17
298.15 K, 101.33 kPa | 1060.53
299.15 K, 101.33 kPa | 1059.89
300.15 K, 101.33 kPa | 1059.26
301.15 K, 101.33 kPa | 1058.62
302.15 K, 101.33 kPa | 1057.99
303.15 K, 100 kPa | 1057.9
303.15 K, 101.33 kPa | 1057.35
303.15 K, 250 kPa | 1057.9
303.15 K, 500 kPa | 1058
303.15 K, 1000 kPa | 1058.2
303.15 K, 2000 kPa | 1058.6
303.15 K, 4990 kPa | 1059.8
303.15 K, 10000 kPa | 1061.8
303.15 K, 14990 kPa | 1063.6
303.15 K, 20010 kPa | 1065.5
303.15 K, 25000 kPa | 1067.4
303.15 K, 30000 kPa | 1069.2
303.15 K, 34990 kPa | 1070.9
303.15 K, 40000 kPa | 1072.7
303.15 K, 45000 kPa | 1074.4
303.15 K, 50000 kPa | 1076.1
303.15 K, 55000 kPa | 1077.8
303.15 K, 60000 kPa | 1079.4
304.15 K, 101.33 kPa | 1056.72
305.15 K, 101.33 kPa | 1056.09
306.15 K, 101.33 kPa | 1055.45
307.15 K, 101.33 kPa | 1054.82
308.15 K, 101.33 kPa | 1054.19
309.15 K, 101.33 kPa | 1053.56
310.15 K, 101.33 kPa | 1052.93
311.15 K, 101.33 kPa | 1052.31
312.15 K, 101.33 kPa | 1051.68
313.15 K, 100 kPa | 1051.5
313.15 K, 101.33 kPa | 1051.05
313.15 K, 250 kPa | 1051.5
313.15 K, 500 kPa | 1051.6
313.15 K, 1000 kPa | 1051.8
313.15 K, 2000 kPa | 1052.3
313.15 K, 4990 kPa | 1053.4
313.15 K, 10000 kPa | 1055.5
313.15 K, 14990 kPa | 1057.4
313.15 K, 20010 kPa | 1059.4
313.15 K, 25000 kPa | 1061.2
313.15 K, 30000 kPa | 1063.1
313.15 K, 35000 kPa | 1064.9
313.15 K, 40010 kPa | 1066.7
313.15 K, 45000 kPa | 1068.4
313.15 K, 50000 kPa | 1070.2
313.15 K, 55010 kPa | 1071.9
313.15 K, 60000 kPa | 1073.6
314.15 K, 101.33 kPa | 1050.43
315.15 K, 101.33 kPa | 1049.8
316.15 K, 101.33 kPa | 1049.18
317.15 K, 101.33 kPa | 1048.56
318.15 K, 101.33 kPa | 1047.94
319.15 K, 101.33 kPa | 1047.32
320.15 K, 101.33 kPa | 1046.7
321.15 K, 101.33 kPa | 1046.08
322.15 K, 101.33 kPa | 1045.46
323.15 K, 100 kPa | 1045.2
323.15 K, 101.33 kPa | 1044.84
323.15 K, 250 kPa | 1045.3
323.15 K, 500 kPa | 1045.4
323.15 K, 1000 kPa | 1045.6
323.15 K, 2010 kPa | 1046
323.15 K, 4990 kPa | 1047.3
323.15 K, 10010 kPa | 1049.3
323.15 K, 14990 kPa | 1051.3
323.15 K, 20010 kPa | 1053.3
323.15 K, 25000 kPa | 1055.2
323.15 K, 30010 kPa | 1057.1
323.15 K, 34990 kPa | 1058.9
323.15 K, 40000 kPa | 1060.8
323.15 K, 45000 kPa | 1062.6
323.15 K, 50000 kPa | 1064.4
323.15 K, 55000 kPa | 1066.1
323.15 K, 60000 kPa | 1067.8
324.15 K, 101.33 kPa | 1044.22
325.15 K, 101.33 kPa | 1043.61
326.15 K, 101.33 kPa | 1042.99
327.15 K, 101.33 kPa | 1042.37
328.15 K, 101.33 kPa | 1041.76
329.15 K, 101.33 kPa | 1041.14
330.15 K, 101.33 kPa | 1040.53
331.15 K, 101.33 kPa | 1039.92
332.15 K, 101.33 kPa | 1039.3
333.15 K, 100 kPa | 1039
333.15 K, 101.33 kPa | 1038.69
333.15 K, 250 kPa | 1039.1
333.15 K, 500 kPa | 1039.2
333.15 K, 1000 kPa | 1039.4
333.15 K, 2000 kPa | 1039.9
333.15 K, 4990 kPa | 1041.1
333.15 K, 10000 kPa | 1043.2
333.15 K, 15000 kPa | 1045.2
333.15 K, 20000 kPa | 1047.3
333.15 K, 25000 kPa | 1049.2
333.15 K, 30000 kPa | 1051.3
333.15 K, 34990 kPa | 1053.1
333.15 K, 40000 kPa | 1055
333.15 K, 45010 kPa | 1056.8
333.15 K, 50000 kPa | 1058.6
333.15 K, 55000 kPa | 1060.4
333.15 K, 60000 kPa | 1062.2
334.15 K, 101.33 kPa | 1038.08
335.15 K, 101.33 kPa | 1037.47
336.15 K, 101.33 kPa | 1036.86
337.15 K, 101.33 kPa | 1036.25
338.15 K, 101.33 kPa | 1035.64
339.15 K, 101.33 kPa | 1035.03
340.15 K, 101.33 kPa | 1034.42
341.15 K, 101.33 kPa | 1033.82
342.15 K, 101.33 kPa | 1033.21
343.15 K, 100 kPa | 1032.9
343.15 K, 101.33 kPa | 1032.61
343.15 K, 250 kPa | 1033
343.15 K, 500 kPa | 1033.1
343.15 K, 1000 kPa | 1033.3
343.15 K, 2000 kPa | 1033.7
343.15 K, 4990 kPa | 1035
343.15 K, 10010 kPa | 1037.2
343.15 K, 15000 kPa | 1039.2
343.15 K, 20010 kPa | 1041.4
343.15 K, 25000 kPa | 1043.3
343.15 K, 30000 kPa | 1045.4
343.15 K, 35010 kPa | 1047.3
343.15 K, 40000 kPa | 1049.3
343.15 K, 45000 kPa | 1051.1
343.15 K, 50000 kPa | 1053
343.15 K, 55000 kPa | 1054.7
343.15 K, 60000 kPa | 1056.6
344.15 K, 101.33 kPa | 1032
345.15 K, 101.33 kPa | 1031.4
346.15 K, 101.33 kPa | 1030.79
347.15 K, 101.33 kPa | 1030.19
348.15 K, 101.33 kPa | 1029.59
349.15 K, 101.33 kPa | 1028.98
350.15 K, 101.33 kPa | 1028.38
351.15 K, 101.33 kPa | 1027.78
352.15 K, 101.33 kPa | 1027.18
353.15 K, 100 kPa | 1026.8
353.15 K, 101.33 kPa | 1026.58
353.15 K, 250 kPa | 1026.9
353.15 K, 500 kPa | 1027
353.15 K, 1000 kPa | 1027.2
353.15 K, 2000 kPa | 1027.7
353.15 K, 5000 kPa | 1029
353.15 K, 10000 kPa | 1031.3
353.15 K, 15000 kPa | 1033.4
353.15 K, 20000 kPa | 1035.5
353.15 K, 25000 kPa | 1037.5
353.15 K, 30010 kPa | 1039.6
353.15 K, 35000 kPa | 1041.6
353.15 K, 40000 kPa | 1043.6
353.15 K, 45000 kPa | 1045.4
353.15 K, 50000 kPa | 1047.4
353.15 K, 55000 kPa | 1049.2
353.15 K, 60000 kPa | 1051
354.15 K, 101.33 kPa | 1025.98
355.15 K, 101.33 kPa | 1025.38
356.15 K, 101.33 kPa | 1024.79
357.15 K, 101.33 kPa | 1024.19
358.15 K, 101.33 kPa | 1023.59
359.15 K, 101.33 kPa | 1022.99
360.15 K, 101.33 kPa | 1022.4
361.15 K, 101.33 kPa | 1021.8
362.15 K, 101.33 kPa | 1021.21
363.15 K, 100 kPa | 1020.8
363.15 K, 101.33 kPa | 1020.61
363.15 K, 250 kPa | 1020.9
363.15 K, 500 kPa | 1021
363.15 K, 1000 kPa | 1021.3
363.15 K, 2000 kPa | 1021.7
363.15 K, 4990 kPa | 1023.1
363.15 K, 10000 kPa | 1025.4
363.15 K, 14990 kPa | 1027.6
363.15 K, 20010 kPa | 1029.8
363.15 K, 25010 kPa | 1031.8
363.15 K, 30000 kPa | 1033.9
363.15 K, 35000 kPa | 1035.9
363.15 K, 40000 kPa | 1038
363.15 K, 45000 kPa | 1039.9
363.15 K, 50000 kPa | 1041.8
363.15 K, 55000 kPa | 1043.7
363.15 K, 60000 kPa | 1045.6
373.15 K, 100 kPa | 1014.9
373.15 K, 250 kPa | 1015
373.15 K, 500 kPa | 1015.1
373.15 K, 1000 kPa | 1015.4
373.15 K, 2000 kPa | 1015.8
373.15 K, 4990 kPa | 1017.2
373.15 K, 10000 kPa | 1019.5
373.15 K, 15000 kPa | 1021.8
373.15 K, 20000 kPa | 1024
373.15 K, 25000 kPa | 1026.2
373.15 K, 30000 kPa | 1028.3
373.15 K, 35000 kPa | 1030.3
373.15 K, 40000 kPa | 1032.4
373.15 K, 45000 kPa | 1034.4
373.15 K, 50000 kPa | 1036.4
373.15 K, 55000 kPa | 1038.3
373.15 K, 60000 kPa | 1040.2
393.15 K, 100 kPa | 1003.2
393.15 K, 250 kPa | 1003.3
393.15 K, 500 kPa | 1003.4
393.15 K, 1000 kPa | 1003.7
393.15 K, 2000 kPa | 1004.1
393.15 K, 4990 kPa | 1005.6
393.15 K, 10010 kPa | 1008.1
393.15 K, 15000 kPa | 1010.4
393.15 K, 20010 kPa | 1012.8
393.15 K, 25000 kPa | 1015
393.15 K, 30000 kPa | 1017.2
393.15 K, 35000 kPa | 1019.4
393.15 K, 40000 kPa | 1021.6
393.15 K, 45000 kPa | 1023.6
393.15 K, 50000 kPa | 1025.7
393.15 K, 55000 kPa | 1027.7
393.15 K, 60000 kPa | 1029.6
